Earlier results as cited in patent US20190008906A1, “COMPOSITIONS FOR MANAGEMENT OF WOUNDS, SKIN DISEASES, DEHYDRATION, CHRONIC DISEASES, AND RESPIRATORY DISEASES” (priority 2017, published 2019).

Settings: laboratory animals, mainly when given orally

## CC1=CC(=O)C(C(C)C)=CC1=O [thymoquinone]
  safety in toxicity studies: quite safe
